In general, IC50 refers to the concentration needed to halve the response being measured.

Test [1] deals with human non-small cell lung cancer NCI-H1975 cell line. The test can be described thus: SRB proliferation assay, NCI-H1975 cells. Format: cell-based. Conditions: NCI-H1975, SRB, 72 h, read-out: IC50 NCI-H1975. Here is the method: (§1) Cell lines: human epidermal carcinoma A431 cell line and human non-small cell lung cancer NCI-H1975 cell line was purchased from the American Standard Biology Collection Center (ATCC).
Methods: sulforhodamine B (SRB) method, which was as follows: certain number of different tumor cells in logarithmic growth phase were inoculated on 96-well culture plates. After cultured for 24 h to cell adherence, different concentrations of the test compounds of the invention were added. Each concentration was provided with three wells, and a corresponding concentration of DMSO solvent control and a cell-free zeroing well were set. After the cells were treated with the medicine for 72 h, the culture medium was discarded and 100 μL of 10% pre-cooled trichloroacetic acid solution was added to fix the cells. After placed for 1 h at 4° C., it was washed for 5 times with distilled water and dried naturally. Then 100 μL SRB (4 mg/mL) (Sigma) solution was added and stained for 15 min at room temperature. The staining solution was discarded and washed for 5 times with 1% glacial acetic acid and dried. Finally, 150 μL of 10 mM Tris solution (pH 10.5) was added and the OD value was measured at 515 nm with adjustable wavelength microplate enzyme-labeled instrument (VERSAmax™, Molecular Device Corporation, Sunnyvale, Calif., USA). […] Based on the inhibitory effect of the 2-aminopyrimidine compounds on the growth of these cells, the half maximal inhibitory concentration (IC50) values were calculated, as shown in Table 2.

In another test the target is T1, EGFR^wt (Homo sapiens, UniProt P00533).
T1 construct: purchased Millipore
Description: kinase inhibitory activity test (ELISA), EGFR^WT. Conditions: ATP 5 μM, 1 hour at 37° C. Format: biochemical. Here is the method:
(§2) The enzyme substrate poly (glutamic acid, tyrosine)4:1 (Sigma) was diluted with potassium-free PBS (10 mM sodium phosphate buffer, 150 mM NaCl, pH 7.2-7.4) to 20 μg/mL, plate coated with 125 μL/well, reacted for 12-16 hours at 37° C. After the liquid in the wells was discarded, the plates were washed three times with 200 μL/well of T-PBS (PBS containing 0.1% Tween-20), and each time for 5 minutes, and then dried for 1-2 hours in an oven at 37° C. 50 μL of ATP solution diluted with reaction buffer (50 mM HEPES pH 7.4, 50 mM MgCl2, 5 mM MnCl2, 0.2 mM Na3VO4, 1 mM DTT) was added into each well and the final concentration was 5 μM. The compounds were diluted with 1% DMSO to suitable concentrations and were added at 10 μL/well. […] The above reaction system was reacted for 1 hour at 37° C. shaking table (100 rpm). Control wells with no enzyme and control wells with DMSO solvent were set in each experiment. After the reaction was completed, the plates were washed three times with T-PBS. The anti-phosphotyrosine primary antibody PY99 (Santa Cruz) was added at 100 μL/well and the antibody was diluted with T-PBS containing BSA 5 mg/mL by 1:1000. The mixture was reacted for 0.5 h at 37° C. shaking table, the plates were washed three times with T-PBS. The secondary antibody which was horseradish peroxidase-labeled goat anti-mouse IgG was added at 100 μL/well (the antibody was diluted with T-PBS containing BSA 5 mg/mL by 1:2000). The mixture was reacted for 0.5 h at 37° C. shaking table, the plates were washed three times with T-PBS. 2 l/mL of OPD coloring solution was added at 100 μL/well (diluted with 0.1 M citric acid-sodium citrate buffer (pH=5.4) containing 0.03% H2O2) and dark reacted for 1 to 10 minutes at 25° C. 2 M H2SO4 was added at 50 μL/well to terminate the reaction. Reading was carried out with an adjustable wavelength microplate enzyme-labeled instrument SPECTRA MAX 190 at 490 nm wavelength.
(§3) The IC50 value was calculated by the four-parameter fitting of the suppression curve.

The target in another test is T2, EGFR^T790M/L858R (Homo sapiens, UniProt P00533, L858R/T790M).
T2 construct: purchased Millipore
The test can be described thus: kinase inhibitory activity test (ELISA), EGFR^T790M/L858R. The conditions noted are these: for IC50: ELISA, ATP 5 μM, 1 hour at 37° C.; for kinase inhibitory activity (in words): summary of Table 1. Format: biochemical. Here is the method: as §2, §3
(In general: ELISA stands for enzyme-linked immunosorbent assay.)

In test [2] the test system is human epidermal carcinoma A431 cell line. Description: SRB proliferation assay, A431 cells. Conditions: A-431, SRB, 72 h, read-out: IC50 A431. Format: cell-based. Here is the method: as §1
Methods: sulforhodamine B (SRB) method, which was as follows: certain number of different tumor cells in logarithmic growth phase were inoculated on 96-well culture plates. After cultured for 24 h to cell adherence, different concentrations of the test compounds of the invention were added. Each concentration was provided with three wells, and a corresponding concentration of DMSO solvent control and a cell-free zeroing well were set. After the cells were treated with the medicine for 72 h, the culture medium was discarded and 100 μL of 10% pre-cooled trichloroacetic acid solution was added to fix the cells. After placed for 1 h at 4° C., it was washed for 5 times with distilled water and dried naturally. Then 100 μL SRB (4 mg/mL) (Sigma) solution was added and stained for 15 min at room temperature. The staining solution was discarded and washed for 5 times with 1% glacial acetic acid and dried. Finally, 150 μL of 10 mM Tris solution (pH 10.5) was added and the OD value was measured at 515 nm with adjustable wavelength microplate enzyme-labeled instrument (VERSAmax™, Molecular Device Corporation, Sunnyvale, Calif., USA).
On the technique in general: The SRB assay estimates cell density from bound dye.

The target in a further test is T3, IGF-1R (Homo sapiens, UniProt P08069).
T3 construct: purchased Millipore
Description: kinase inhibitory activity test (ELISA), IGF-1R. The conditions noted are these: ATP 5 μM, 1 hour at 37° C. Format: biochemical. Here is the method:
The enzyme substrate poly (glutamic acid, tyrosine)4:1 (Sigma) was diluted with potassium-free PBS (10 mM sodium phosphate buffer, 150 mM NaCl, pH 7.2-7.4) to 20 μg/mL, plate coated with 125 μL/well, reacted for 12-16 hours at 37° C. After the liquid in the wells was discarded, the plates were washed three times with 200 μL/well of T-PBS (PBS containing 0.1% Tween-20), and each time for 5 minutes, and then dried for 1-2 hours in an oven at 37° C. 50 μL of ATP solution diluted with reaction buffer (50 mM HEPES pH 7.4, 50 mM MgCl2, 5 mM MnCl2, 0.2 mM Na3VO4, 1 mM DTT) was added into each well and the final concentration was 5 μM. The compounds were diluted with 1% DMSO to suitable concentrations and were added at 10 μL/well. Then different types of tyrosine kinase proteins (including EGFR^wt, EGFR^T790M/L858R and IGF-1R, purchased from Millipore) diluted with 40 μL of reaction buffer were added. The above reaction system was reacted for 1 hour at 37° C. shaking table (100 rpm). Control wells with no enzyme and control wells with DMSO solvent were set in each experiment. After the reaction was completed, the plates were washed three times with T-PBS. The anti-phosphotyrosine primary antibody PY99 (Santa Cruz) was added at 100 μL/well and the antibody was diluted with T-PBS containing BSA 5 mg/mL by 1:1000. The mixture was reacted for 0.5 h at 37° C. shaking table, the plates were washed three times with T-PBS. The secondary antibody which was horseradish peroxidase-labeled goat anti-mouse IgG was added at 100 μL/well (the antibody was diluted with T-PBS containing BSA 5 mg/mL by 1:2000). The mixture was reacted for 0.5 h at 37° C. shaking table, the plates were washed three times with T-PBS. 2 l/mL of OPD coloring solution was added at 100 μL/well (diluted with 0.1 M citric acid-sodium citrate buffer (pH=5.4) containing 0.03% H2O2) and dark reacted for 1 to 10 minutes at 25° C. 2 M H2SO4 was added at 50 μL/well to terminate the reaction. Reading was carried out with an adjustable wavelength microplate enzyme-labeled instrument SPECTRA MAX 190 at 490 nm wavelength.
as §3

T1 sequence (P00533 25-1210): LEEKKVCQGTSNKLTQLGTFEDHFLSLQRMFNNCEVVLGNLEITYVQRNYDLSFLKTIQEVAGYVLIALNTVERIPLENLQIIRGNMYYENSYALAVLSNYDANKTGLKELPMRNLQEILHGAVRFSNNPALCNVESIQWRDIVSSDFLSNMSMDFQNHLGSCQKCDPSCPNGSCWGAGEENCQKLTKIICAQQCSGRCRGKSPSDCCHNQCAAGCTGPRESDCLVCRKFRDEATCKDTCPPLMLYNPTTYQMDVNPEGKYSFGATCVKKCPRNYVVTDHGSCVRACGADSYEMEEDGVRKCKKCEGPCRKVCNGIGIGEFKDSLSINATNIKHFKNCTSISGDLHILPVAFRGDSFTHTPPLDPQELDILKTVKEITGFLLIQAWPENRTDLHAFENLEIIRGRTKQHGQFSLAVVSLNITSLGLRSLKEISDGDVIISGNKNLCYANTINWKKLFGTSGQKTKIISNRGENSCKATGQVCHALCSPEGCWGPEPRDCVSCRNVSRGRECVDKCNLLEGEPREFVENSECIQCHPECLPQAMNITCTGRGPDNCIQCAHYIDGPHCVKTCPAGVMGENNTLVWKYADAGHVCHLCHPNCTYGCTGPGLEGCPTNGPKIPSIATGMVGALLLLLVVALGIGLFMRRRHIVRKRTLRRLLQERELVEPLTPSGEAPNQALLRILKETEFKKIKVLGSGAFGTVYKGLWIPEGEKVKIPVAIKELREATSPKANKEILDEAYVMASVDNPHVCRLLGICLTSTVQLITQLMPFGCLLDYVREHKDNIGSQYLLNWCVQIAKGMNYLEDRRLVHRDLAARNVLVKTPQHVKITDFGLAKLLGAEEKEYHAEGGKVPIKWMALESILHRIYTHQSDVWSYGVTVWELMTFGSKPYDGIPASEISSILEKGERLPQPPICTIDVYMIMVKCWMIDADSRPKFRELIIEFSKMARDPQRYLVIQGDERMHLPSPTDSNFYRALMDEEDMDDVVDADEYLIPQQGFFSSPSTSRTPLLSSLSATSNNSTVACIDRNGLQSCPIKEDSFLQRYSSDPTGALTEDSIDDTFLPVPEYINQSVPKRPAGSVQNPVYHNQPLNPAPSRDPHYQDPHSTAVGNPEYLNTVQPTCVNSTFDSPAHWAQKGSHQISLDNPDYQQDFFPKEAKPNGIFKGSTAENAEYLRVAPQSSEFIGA
T2 sequence (P00533 25-1210 T790M/L858R): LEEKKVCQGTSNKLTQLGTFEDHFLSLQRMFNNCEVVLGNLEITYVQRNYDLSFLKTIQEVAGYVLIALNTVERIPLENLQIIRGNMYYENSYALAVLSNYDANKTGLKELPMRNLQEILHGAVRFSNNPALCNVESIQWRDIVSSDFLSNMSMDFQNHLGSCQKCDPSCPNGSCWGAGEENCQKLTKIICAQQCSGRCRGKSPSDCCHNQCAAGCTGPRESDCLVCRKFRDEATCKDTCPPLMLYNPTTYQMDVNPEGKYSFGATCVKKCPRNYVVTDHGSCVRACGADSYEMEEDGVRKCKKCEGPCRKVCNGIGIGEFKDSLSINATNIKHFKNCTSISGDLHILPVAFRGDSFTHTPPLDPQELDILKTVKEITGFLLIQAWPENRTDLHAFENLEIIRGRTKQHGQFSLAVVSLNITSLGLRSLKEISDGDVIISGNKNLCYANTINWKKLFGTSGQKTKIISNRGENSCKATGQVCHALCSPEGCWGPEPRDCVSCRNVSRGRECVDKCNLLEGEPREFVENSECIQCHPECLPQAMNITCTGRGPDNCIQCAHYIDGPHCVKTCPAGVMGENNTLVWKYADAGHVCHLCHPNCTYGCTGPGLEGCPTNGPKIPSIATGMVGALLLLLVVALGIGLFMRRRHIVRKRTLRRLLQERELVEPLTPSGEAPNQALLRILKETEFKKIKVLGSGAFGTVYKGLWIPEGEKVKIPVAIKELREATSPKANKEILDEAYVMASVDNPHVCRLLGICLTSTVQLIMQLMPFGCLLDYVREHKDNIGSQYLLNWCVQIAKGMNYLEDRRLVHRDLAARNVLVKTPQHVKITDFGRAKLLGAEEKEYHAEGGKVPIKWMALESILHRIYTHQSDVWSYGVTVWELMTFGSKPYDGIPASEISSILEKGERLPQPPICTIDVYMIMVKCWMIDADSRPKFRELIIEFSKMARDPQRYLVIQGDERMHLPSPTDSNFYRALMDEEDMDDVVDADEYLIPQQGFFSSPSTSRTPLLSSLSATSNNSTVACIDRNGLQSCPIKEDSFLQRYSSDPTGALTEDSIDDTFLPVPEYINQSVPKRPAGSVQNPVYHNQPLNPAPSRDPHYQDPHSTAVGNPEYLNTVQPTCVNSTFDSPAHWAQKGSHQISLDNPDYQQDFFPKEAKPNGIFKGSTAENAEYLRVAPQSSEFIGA
T3 sequence (P08069 31-1367): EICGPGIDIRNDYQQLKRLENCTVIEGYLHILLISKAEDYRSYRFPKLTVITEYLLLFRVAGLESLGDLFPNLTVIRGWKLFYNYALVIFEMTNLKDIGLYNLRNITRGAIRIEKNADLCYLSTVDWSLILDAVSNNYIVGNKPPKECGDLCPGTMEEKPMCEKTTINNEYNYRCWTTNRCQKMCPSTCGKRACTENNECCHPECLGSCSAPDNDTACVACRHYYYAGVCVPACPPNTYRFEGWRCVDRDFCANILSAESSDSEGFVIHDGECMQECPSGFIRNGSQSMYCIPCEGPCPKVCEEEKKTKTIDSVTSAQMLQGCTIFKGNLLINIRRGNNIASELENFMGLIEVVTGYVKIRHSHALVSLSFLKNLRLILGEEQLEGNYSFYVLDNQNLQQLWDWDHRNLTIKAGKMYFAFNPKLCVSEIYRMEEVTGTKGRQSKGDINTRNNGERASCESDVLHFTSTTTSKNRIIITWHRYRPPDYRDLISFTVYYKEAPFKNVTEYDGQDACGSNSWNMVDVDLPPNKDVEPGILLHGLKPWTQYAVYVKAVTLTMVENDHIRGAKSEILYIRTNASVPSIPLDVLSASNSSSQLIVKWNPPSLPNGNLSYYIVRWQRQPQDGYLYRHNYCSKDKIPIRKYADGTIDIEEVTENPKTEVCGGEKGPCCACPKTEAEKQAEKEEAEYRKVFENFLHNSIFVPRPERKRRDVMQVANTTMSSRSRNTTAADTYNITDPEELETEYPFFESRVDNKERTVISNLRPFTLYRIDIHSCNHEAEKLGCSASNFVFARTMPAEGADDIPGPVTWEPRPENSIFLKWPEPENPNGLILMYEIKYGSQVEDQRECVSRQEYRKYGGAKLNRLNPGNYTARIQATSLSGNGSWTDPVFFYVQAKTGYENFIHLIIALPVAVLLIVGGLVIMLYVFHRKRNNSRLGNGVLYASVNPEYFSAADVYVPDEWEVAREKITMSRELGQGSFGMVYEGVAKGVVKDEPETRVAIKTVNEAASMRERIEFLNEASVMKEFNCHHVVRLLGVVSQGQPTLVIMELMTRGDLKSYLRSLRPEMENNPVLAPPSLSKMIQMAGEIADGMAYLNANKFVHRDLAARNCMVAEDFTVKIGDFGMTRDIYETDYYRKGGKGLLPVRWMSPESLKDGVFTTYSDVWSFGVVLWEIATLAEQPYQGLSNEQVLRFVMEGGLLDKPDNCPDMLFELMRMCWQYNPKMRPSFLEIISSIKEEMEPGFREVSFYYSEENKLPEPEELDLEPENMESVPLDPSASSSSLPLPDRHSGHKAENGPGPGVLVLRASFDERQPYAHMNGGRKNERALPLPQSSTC

`C=CC(=O)Nc1cc(CN2CCCN(C)CC2)cc(Nc2ncc(Cl)c(Nc3ccc4ccccc4c3)n2)c1` [CCB120105, N-((3-((5-chloro-4-((naphthalen-2-yl)amino))pyrimidin-2-yl)amino)-5-((4-methylhomopiperazin-1-yl)methyl)phenyl)acrylamide]: the IC50 in test [1] turned out to be 151 nM; against EGFR^wt, 137 nM; on EGFR^T790M/L858R, 1.2 nM; in test [2] it was 576 nM; on IGF-1R it was 77.3 nM.

Consider `C=CC(=O)Nc1cc(CN2CCOCC2)cc(Nc2ncc(Cl)c(Nc3ccc4ccccc4c3)n2)c1` [CCB120106], for which the IC50 in test [1] is 311 nM; at EGFR^wt, above 1000 nM; against EGFR^T790M/L858R it was 4.1 nM; in test [2], 2000 nM; on IGF-1R it was 138 nM.

Take `C=CC(=O)Nc1cc(Nc2ncc(Cl)c(Nc3ccc4ccccc4c3)n2)c(OC)cc1N1CCN(C(C)=O)CC1` [CCB120111, N-((5-((5-chloro-4-((naphthalen-2-yl)amino))pyrimidin-2-yl)amino)-2-(4-acetylpiperazine)-4-methoxyphenyl)acrylamide]: the IC50 in test [1] is 51 nM; against EGFR^wt, above 100 nM; against EGFR^T790M/L858R, 21.5 nM; in test [2] it was 1100 nM; on IGF-1R, 19.8 nM.

`C=CC(=O)Nc1cc(Nc2ncc(Cl)c(Nc3ccc4ccccc4c3)n2)c(OC)cc1N1CCN(C)CC1` [CCB120115, N-((5-((5-chloro-4-((naphthalen-2-yl)amino))pyrimidin-2-yl)amino)-2-(4-methylpiperazine)-4-methoxyphenyl)acrylamide]: the IC50 in test [1] was determined as 16 nM; against EGFR^wt, 40.3 nM; against EGFR^T790M/L858R it was 1.6 nM; in test [2] it was 2590 nM; against IGF-1R, 28.5 nM. Also, the “kinase inhibitory activity (in words)” value at EGFR^T790M/L858R is listed as “potent”.

With `C=CC(=O)Nc1cc(Nc2ncc(Cl)c(Nc3ccc4ccccc4c3)n2)c(OC)cc1N1CCOCC1` [CCB120117, N-((5-((5-chloro-4-((naphthalen-2-yl)amino))pyrimidin-2-yl)amino)-2-morpholinyl-4-methoxyphenyl)acrylamide], the IC50 in test [1] is 272 nM; on EGFR^wt, above 100 nM; on EGFR^T790M/L858R it was 9.4 nM; in test [2], above 10000 nM; against IGF-1R, 18.7 nM.

As to `C=CC(=O)Nc1cc(Nc2ncc(Cl)c(Nc3ccc4ccccc4c3)n2)c(OC)cc1N1CCCN(C)CC1` [CCB120120, N-((5-((5-chloro-4-((naphthalen-2-yl)amino))pyrimidin-2-yl)amino)-2-(4-methylhomopiperazinyl)-4-methoxyphenyl)acrylamide], the IC50 in test [1] is 1 to 16 nM; at EGFR^wt, 31.7 nM; on EGFR^T790M/L858R it was 0.6 nM; in test [2], 260 nM; against IGF-1R it was 18.3 nM. In addition, on EGFR^T790M/L858R, the “kinase inhibitory activity (in words)” value is given as “potent”.

As for `C=CC(=O)Nc1cc(Nc2ncc(Cl)c(Nc3ccc4ccccc4c3)n2)c(OC)cc1N1CCC(N(C)C)CC1` [CCB120121, N-((5-((5 chloro-4-((naphthalen-2-yl)amino))pyrimidin-2-yl)amino)-2-(4-dimethylaminopiperidine)-4-methoxyphenyl)acrylamide], the IC50 in test [1] is 4 nM; against EGFR^wt, above 100 nM; against EGFR^T790M/L858R it was 1.3 nM; in test [2] it was 324 nM; on IGF-1R, 13.7 nM.

As for `C=CC(=O)Nc1cc(Nc2ncc(Cl)c(Nc3ccc4ccccc4c3)n2)c(OC)cc1N1CCC(N(C)C)C1` (centres unmarked) [CCB120137, N-((5-((5-chloro-4-((naphthalen-2-yl)amino))pyrimidin-2-yl)amino)-2-(3-dimethylaminopyrrolidin-1-yl)-4-methoxyphenyl)acrylamide], the IC50 in test [1] was determined as 167 nM; against EGFR^wt, 16.8 nM; against EGFR^T790M/L858R it was 0.3 nM; in test [2], 425 nM; against IGF-1R it was 56.4 nM. For the same molecule, at EGFR^T790M/L858R, the “kinase inhibitory activity (in words)” value is “potent”.

On to `C=CC(=O)Nc1cc(Nc2ncc(Cl)c(Nc3ccc4ccccc4c3)n2)c(OC)cc1N1CC(N(C)C)C1` [CCB120138, N-((5-((5-chloro-4-((naphthalen-2-yl)amino))pyrimidin-2-yl)amino)-2-(3-dimethylaminoazetidin-1-yl)-4-methoxyphenyl)acrylamide], for which the IC50 in test [1] was 164 nM; against EGFR^wt it was 4.3 nM; against EGFR^T790M/L858R it was 0.6 nM; in test [2], 912 nM; at IGF-1R, 426 nM.

In the case of `COc1ccc(NC(=O)/C=C/CN(C)C)cc1Nc1ncc(Cl)c(Nc2ccc3ncccc3c2)n1` [CCB145213, (E)-N-((3-((5-chloro-4-((quinolin-6-yl)amino))pyrimidin-2-yl)amino)-4-methoxyphenyl)-4-(dimethylamino)-2-butenamide], the IC50 in test [1] came out at 240 nM; against EGFR^wt it was 615 nM; against EGFR^T790M/L858R it was 43.5 nM; in test [2], 857 nM; on IGF-1R, 37.1 nM.

The record behind these values is patent US10059694B2, “2-aminopyrimidine compound and pharmaceutical composition and use thereof” (Shanghai Institute of Materia Medica, Chinese Academy of …, priority 2014, dated 2018).
